Positions count from the first letter of the chain named.

The target in data set [1] is T1, DgoR (BW WT DgoR) (Escherichia coli, UniProt P31460, A152E).
T1 construct: full length (229 aa), C-terminal 6XHis tag, expressed from Ptrc in pRC10 in E. coli BL21(DE3), Co-NTA purified; dimer
T1 sequence (P31460 1-229 A152E): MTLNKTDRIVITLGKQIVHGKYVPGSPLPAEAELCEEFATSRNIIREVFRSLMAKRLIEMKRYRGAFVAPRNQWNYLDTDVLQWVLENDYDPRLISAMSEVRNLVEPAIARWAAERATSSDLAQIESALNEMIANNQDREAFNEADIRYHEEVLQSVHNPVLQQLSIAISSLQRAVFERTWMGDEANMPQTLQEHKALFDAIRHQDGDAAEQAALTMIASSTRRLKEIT
As to the kind of experiment: label-free microscale thermophoresis. The format is binding.

For data set [2], the target named is T2, DgoR (BW WT DgoR) (Escherichia coli, UniProt P31460, R71C).
T2 construct: full length (229 aa), C-terminal 6XHis tag, expressed from Ptrc in pRC10 in E. coli BL21(DE3), Co-NTA purified; dimer
T2 sequence (P31460 1-229 R71C): T1 sequence (P31460 1-229 A152E) with R71C, E152A
As to the kind of experiment: label-free microscale thermophoresis. The format is binding.

Data set [3] has as its target T3, DgoR (BW WT DgoR) (Escherichia coli, UniProt P31460).
T3 construct: full length (229 aa), C-terminal 6XHis tag, expressed from Ptrc in pRC10 in E. coli BL21(DE3), Co-NTA purified; dimer
T3 sequence (P31460 1-229): T1 sequence (P31460 1-229 A152E) with E152A
Description: label-free microscale thermophoresis. In kind it is binding.

The target in the next data set is T4, DgoR WT (Escherichia coli BW, UniProt P31460 1-229).
T4 sequence: T1 sequence (P31460 1-229 A152E) with E152A
Description: EMSA; no effector; apparent Kd, Hill fit; 10 nM DNA, 50 mM Tris pH 8.5, 10 mM MgCl2, 265 mM NaCl, 1 mM PMSF, 12% glycerol, 2 mM DTT, 1 ug herring sperm DNA per 20 uL, 27 C 30 min; effector pre-incubation 37 C 20 min; 8% native PAGE 0.5x TBE. As to conditions: protein: recombinant; tags: C-terminal 6xHis; chain copies: 2; label: 5'-Cy5 on strand 1; blunt.

Turning to `O=C(O)[C@H](O)[C@@H](O)[C@@H](O)[C@H](O)CO` [D-galactonate], the figures for the Kd on DgoR (BW WT DgoR) [1], at DgoR (BW WT DgoR) [2] and at DgoR (BW WT DgoR) [3] were 11.3 ± 0.2 µM, 32.9 ± 1.2 µM and 10.3 ± 0.3 µM, respectively.

B1: dgo promoter probe GA149/GA150 (dsDNA)
DNA 1: GTGATCTAAATTGTAGTACAACAATATAAGTTTGTACTACATTACACGCACG
DNA 2: CGTGCGTGTAATGTAGTACAAACTTATATTGTTGTACTACAATTTAGATCAC
With B1, in the data set with DgoR WT, the Kd worked out at 0.494 ± 0.019 µM.

Source of the values: publication PMC12288454, “Functional consequences of genetic variations in DgoR, a GntR/FadR family transcriptional repressor of D-galactonate metabolism in Escherichia coli” (Journal of Bacteriology, 2025).
